Data set [1] in a line: Ratio of drug level in brain to plasma in ip dosed rat after 30 mins. Format: ADME, organism-based. To be noted: read-out: BPR.
Data set [2] in a line: Efflux ratio of the compound in human Caco2 cells. Format: ADME, cell-based. To be noted: Caco-2. On the technique in general: Passage across Caco-2 layers is used to estimate intestinal permeability.
The nature of data set [3]: Permeability of the compound at pH 7.4 by PAMPA. It is filed as ADME. To be noted: read-out: permeability.
Data set [4] in a line: Dissociation constant, pKa of the compound. It is filed as physicochemical.
Data set [5] deals with T1, Neuronal acetylcholine receptor subunit alpha-7 (Rattus norvegicus, UniProt Q05941). Put plainly: Agonist activity at rat alpha7 nAChR expressed in HEK293 cells assessed as calcium ion influx by FRET assay. Format: cell-based.
In data set [6] the target is T1, Neuronal acetylcholine receptor subunit alpha-7. Kind of data set: Agonist activity at rat alpha7 nAChR expressed in HEK293 cells assessed as area under the curve of acetylcholine-induced response by whole-cell patch clamp electrophysiology paradigm assay. Format: cell-based. (In general: In patch-clamp work, channel activity is measured electrically.)
Data set [7] deals with Neuronal acetylcholine receptor subunit alpha-7 (Rattus norvegicus) (UniProt Q05941). Kind of data set: Agonist activity at rat alpha7 nAChR expressed in HEK293 cells assessed as area under the curve of acetylcholine-induced response by whole-cell patch clamp electrophysiology paradigm assay relative to control. It is filed as cell-based.
Data set [8] has the same target. Kind of data set: Agonist activity at rat alpha7 nAChR expressed in HEK293 cells assessed as peak intensity of acetylcholine-induced response by whole-cell patch clamp electrophysiology paradigm assay relative to control. Format: cell-based.
Data set [9] is described as follows: Ratio of drug level in brain to plasma in sc dosed rat after 30 mins. It is filed as ADME, organism-based. The settings on record: read-out: BPR.
For data set [10], the target named is Neuronal acetylcholine receptor; alpha4/beta2 (Homo sapiens, UniProt P17787+P43681). Put plainly: Agonist activity at alpha4beta2 nAChR (unknown origin). Format: protein-complex assay.
Data set [11] deals with Neuronal acetylcholine receptor; alpha3/beta4 (Homo sapiens, UniProt P30926+P32297). Kind of data set: Agonist activity at alpha3beta4 nAChR (unknown origin). Format: protein-complex assay.
Data set [12] concerns the target T2, 5-hydroxytryptamine receptor 3A (Homo sapiens, UniProt P46098).
T2 sequence (P46098 whole entry): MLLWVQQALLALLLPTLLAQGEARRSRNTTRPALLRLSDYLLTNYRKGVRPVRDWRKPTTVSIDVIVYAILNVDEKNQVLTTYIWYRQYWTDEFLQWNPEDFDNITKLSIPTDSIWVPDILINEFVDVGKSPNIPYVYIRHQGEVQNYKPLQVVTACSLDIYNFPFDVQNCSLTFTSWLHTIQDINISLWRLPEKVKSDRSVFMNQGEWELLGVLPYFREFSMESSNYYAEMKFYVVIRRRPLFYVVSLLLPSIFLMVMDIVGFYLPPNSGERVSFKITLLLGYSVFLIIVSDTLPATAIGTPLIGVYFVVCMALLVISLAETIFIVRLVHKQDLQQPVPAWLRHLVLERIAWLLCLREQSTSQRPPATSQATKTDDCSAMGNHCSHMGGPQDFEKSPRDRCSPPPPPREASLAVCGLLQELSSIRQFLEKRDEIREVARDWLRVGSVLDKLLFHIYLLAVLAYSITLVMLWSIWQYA
Kind of data set: Inhibition of 5HT3 receptor (unknown origin).

In data set [13] the target is Acetylcholine receptor; alpha1/beta1/delta/gamma (Homo sapiens, UniProt P02708+P07510+P11230+Q07001). Kind of data set: Agonist activity at alpha1beta1deltaepsilon nAChR (unknown origin). Format: protein-complex assay.
The nature of data set [14]: Selectivity ratio of IC50 for 5HT3 receptor (unknown origin) to EC50 for rat alpha7 nAChR.
Data set [15] is described as follows: Selectivity ratio of EC50 for alpha3beta4 nAChR (unknown origin) to EC50 for rat alpha7 nAChR.
Data set [16] can be described thus: Selectivity ratio of EC50 for alpha4beta2 nAChR (unknown origin) to EC50 for rat alpha7 nAChR.
Data set [17] can be described thus: Selectivity ratio of EC50 for alpha1beta1deltaepsilon nAChR (unknown origin) to EC50 for rat alpha7 nAChR.

Structures are written as SMILES.

Sequence of Neuronal acetylcholine receptor subunit alpha-7 (Rattus norvegicus) (Q05941 whole entry): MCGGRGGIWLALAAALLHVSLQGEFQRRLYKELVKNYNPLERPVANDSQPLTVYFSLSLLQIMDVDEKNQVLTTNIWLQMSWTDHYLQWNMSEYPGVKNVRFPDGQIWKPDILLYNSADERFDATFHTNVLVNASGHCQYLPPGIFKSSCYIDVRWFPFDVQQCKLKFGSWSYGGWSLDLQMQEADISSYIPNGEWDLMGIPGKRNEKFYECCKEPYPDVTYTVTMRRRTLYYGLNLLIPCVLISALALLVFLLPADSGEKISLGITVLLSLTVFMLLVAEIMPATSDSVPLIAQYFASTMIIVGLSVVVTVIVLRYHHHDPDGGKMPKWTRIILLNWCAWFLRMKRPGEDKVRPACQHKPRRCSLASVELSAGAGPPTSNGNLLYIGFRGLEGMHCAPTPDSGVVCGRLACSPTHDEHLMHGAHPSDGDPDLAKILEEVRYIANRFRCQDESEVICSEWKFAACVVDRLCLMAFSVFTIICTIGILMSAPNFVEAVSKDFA
T1 sequence (Q05941 whole entry): as above
Sequence of Neuronal acetylcholine receptor; alpha3/beta4 (P30926 whole entry): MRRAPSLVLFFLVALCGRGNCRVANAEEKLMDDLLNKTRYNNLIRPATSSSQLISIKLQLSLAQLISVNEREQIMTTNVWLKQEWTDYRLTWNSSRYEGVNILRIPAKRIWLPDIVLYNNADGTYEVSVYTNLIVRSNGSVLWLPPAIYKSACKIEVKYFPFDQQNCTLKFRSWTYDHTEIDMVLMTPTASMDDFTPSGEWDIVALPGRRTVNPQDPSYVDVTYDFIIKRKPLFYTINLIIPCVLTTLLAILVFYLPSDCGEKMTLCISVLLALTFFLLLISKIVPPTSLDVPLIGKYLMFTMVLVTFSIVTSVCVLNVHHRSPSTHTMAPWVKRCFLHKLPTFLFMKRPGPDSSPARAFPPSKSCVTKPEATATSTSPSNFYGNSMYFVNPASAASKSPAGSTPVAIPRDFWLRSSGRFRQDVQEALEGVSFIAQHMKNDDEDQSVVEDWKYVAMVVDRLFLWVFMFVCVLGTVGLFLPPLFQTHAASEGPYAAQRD
Sequence of Neuronal acetylcholine receptor; alpha3/beta4 (P32297 whole entry): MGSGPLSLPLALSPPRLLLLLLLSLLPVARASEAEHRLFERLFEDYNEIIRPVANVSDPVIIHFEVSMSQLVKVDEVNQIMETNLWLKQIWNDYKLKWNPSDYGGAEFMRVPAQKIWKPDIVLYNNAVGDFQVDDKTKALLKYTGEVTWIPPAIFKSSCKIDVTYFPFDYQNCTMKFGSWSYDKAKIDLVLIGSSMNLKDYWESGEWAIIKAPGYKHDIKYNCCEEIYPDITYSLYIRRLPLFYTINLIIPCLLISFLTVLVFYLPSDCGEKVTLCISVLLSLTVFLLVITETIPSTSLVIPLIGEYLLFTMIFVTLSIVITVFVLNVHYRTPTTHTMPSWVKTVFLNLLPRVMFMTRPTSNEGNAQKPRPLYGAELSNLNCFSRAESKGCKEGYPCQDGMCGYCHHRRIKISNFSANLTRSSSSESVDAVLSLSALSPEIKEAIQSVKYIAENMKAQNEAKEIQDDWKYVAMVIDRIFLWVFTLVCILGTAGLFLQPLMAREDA
Sequence of Neuronal acetylcholine receptor; alpha4/beta2 (P17787 whole entry): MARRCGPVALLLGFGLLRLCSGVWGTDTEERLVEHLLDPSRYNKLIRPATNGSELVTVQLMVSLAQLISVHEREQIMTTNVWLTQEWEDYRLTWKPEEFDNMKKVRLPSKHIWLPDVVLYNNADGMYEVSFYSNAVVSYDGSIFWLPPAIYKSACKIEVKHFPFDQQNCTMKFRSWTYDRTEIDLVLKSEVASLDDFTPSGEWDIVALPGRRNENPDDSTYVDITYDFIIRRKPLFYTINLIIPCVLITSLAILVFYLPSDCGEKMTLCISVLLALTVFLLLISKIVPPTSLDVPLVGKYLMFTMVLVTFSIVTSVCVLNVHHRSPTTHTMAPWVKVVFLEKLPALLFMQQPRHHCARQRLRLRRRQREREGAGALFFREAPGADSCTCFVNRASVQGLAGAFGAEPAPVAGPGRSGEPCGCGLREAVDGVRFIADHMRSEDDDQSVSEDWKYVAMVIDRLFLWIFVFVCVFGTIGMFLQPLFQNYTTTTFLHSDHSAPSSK
Sequence of Neuronal acetylcholine receptor; alpha4/beta2 (P43681 whole entry): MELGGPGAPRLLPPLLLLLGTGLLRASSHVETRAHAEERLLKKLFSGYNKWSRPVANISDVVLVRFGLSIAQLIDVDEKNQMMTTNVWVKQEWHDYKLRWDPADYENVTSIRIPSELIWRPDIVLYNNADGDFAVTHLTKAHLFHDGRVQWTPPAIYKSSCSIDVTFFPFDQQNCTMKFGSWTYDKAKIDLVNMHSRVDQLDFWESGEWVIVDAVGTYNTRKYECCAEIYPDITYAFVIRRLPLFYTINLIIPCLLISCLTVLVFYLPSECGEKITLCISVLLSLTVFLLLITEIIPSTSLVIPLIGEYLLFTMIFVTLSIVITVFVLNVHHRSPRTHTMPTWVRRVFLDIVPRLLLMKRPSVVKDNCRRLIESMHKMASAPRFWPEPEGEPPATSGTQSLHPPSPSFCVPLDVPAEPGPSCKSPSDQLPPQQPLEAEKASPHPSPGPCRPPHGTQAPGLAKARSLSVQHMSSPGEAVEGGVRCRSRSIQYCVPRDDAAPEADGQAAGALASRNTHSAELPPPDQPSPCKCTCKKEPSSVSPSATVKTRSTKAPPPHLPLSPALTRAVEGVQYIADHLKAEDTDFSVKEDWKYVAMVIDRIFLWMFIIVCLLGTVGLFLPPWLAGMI
Sequence of Acetylcholine receptor; alpha1/beta1/delta/gamma (P02708 whole entry): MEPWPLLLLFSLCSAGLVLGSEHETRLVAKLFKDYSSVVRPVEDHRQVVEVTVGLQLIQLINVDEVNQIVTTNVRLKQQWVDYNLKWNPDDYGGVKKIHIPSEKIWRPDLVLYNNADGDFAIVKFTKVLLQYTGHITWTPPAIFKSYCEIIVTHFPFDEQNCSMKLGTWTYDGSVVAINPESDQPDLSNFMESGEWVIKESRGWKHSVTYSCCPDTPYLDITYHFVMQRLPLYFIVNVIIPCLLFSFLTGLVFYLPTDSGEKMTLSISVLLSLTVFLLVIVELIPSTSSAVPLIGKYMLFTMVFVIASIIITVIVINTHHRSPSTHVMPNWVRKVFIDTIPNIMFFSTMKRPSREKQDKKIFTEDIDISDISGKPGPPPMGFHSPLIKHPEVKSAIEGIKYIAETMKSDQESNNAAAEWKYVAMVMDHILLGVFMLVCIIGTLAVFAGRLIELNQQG
Sequence of Acetylcholine receptor; alpha1/beta1/delta/gamma (P07510 whole entry): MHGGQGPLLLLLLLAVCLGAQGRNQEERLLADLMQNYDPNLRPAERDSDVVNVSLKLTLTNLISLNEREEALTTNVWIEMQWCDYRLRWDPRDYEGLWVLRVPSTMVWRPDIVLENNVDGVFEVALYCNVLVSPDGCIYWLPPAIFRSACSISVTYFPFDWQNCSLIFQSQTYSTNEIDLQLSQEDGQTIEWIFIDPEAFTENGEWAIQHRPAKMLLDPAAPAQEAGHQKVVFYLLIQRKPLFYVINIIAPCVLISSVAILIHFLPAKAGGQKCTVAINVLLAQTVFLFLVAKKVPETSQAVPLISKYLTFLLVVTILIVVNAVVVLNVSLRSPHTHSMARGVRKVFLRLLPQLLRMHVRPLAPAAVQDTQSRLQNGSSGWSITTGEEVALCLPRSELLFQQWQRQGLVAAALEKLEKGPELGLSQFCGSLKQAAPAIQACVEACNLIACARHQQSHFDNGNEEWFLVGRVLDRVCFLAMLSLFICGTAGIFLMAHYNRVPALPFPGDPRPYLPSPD
Sequence of Acetylcholine receptor; alpha1/beta1/delta/gamma (P11230 whole entry): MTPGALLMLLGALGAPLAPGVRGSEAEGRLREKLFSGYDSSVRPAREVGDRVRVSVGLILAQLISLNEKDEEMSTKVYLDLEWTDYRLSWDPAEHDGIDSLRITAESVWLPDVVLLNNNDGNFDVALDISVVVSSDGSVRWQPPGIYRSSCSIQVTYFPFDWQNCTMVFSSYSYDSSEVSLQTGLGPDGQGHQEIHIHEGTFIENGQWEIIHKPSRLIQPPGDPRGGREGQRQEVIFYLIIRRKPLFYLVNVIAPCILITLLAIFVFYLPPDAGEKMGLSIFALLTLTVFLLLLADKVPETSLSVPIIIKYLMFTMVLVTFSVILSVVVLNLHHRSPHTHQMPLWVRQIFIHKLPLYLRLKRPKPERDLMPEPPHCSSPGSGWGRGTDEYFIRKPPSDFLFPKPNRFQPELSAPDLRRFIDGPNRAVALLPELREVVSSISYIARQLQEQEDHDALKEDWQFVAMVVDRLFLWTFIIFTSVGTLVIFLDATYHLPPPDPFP
Sequence of Acetylcholine receptor; alpha1/beta1/delta/gamma (Q07001 whole entry): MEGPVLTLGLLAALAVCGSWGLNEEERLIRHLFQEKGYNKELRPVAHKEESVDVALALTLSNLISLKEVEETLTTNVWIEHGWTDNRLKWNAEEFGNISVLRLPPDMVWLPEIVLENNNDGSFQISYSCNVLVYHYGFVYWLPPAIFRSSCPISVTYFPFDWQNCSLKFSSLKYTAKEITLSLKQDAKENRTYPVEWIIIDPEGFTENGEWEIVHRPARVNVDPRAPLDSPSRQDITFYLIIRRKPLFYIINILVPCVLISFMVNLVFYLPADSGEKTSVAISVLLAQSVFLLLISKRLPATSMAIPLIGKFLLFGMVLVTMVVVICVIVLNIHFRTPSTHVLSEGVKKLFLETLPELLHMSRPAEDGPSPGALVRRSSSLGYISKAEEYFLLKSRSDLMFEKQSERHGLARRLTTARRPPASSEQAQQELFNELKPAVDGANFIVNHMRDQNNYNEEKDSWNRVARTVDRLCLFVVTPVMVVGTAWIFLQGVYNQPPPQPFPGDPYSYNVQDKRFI

For `O=c1cc(-c2ccccc2)c2ccccc2n1CC1CN2CCC1CC2` (centres undefined), in data set [1], the Kp at 0.5 h was found to be 0.02. In data set [2], the efflux ratio was found to be 6.9. Further, the Papp in data set [3] came out at 90 ×10⁻⁶ cm/s. Besides, in data set [4], the pKa was 10.1. For the same compound, the EC50 in [5] amounted to 150 nM; in data set [6], 760 nM. Moreover, the maximum response (Emax) came out at 110% in [7] and 60% in data set [8].

Turning to `O=c1cc(-c2ccccc2)c2ccccc2n1CC1CNCCO1` (centres undefined), the efflux ratio in data set [2] was found to be 1. Also, in [9], the Kp at 0.5 h came to 0.9. In addition, the Papp in [3] stood at 55 ×10⁻⁶ cm/s. In data set [4], this compound displayed a pKa of 8.1. Besides, the 50% effective concentration (EC50) in [5] was determined as 260 nM; in [6], 1200 nM. Moreover, the figures for the maximum response (Emax) in [7] and in data set [8] were 41% and 34%, respectively.

On to `O=c1cc(-c2ccccc2)c2ccccc2n1CC1CCCNC1` (centres undefined), for which the values for the concentration giving a half-maximal response (EC50) in data set [5] and in data set [6] were 210 nM and 2500 nM, respectively. Besides, the maximal response (Emax) in [7] is 30%; in [8], 60%.

Take `CNCCCn1c(=O)c(C#N)c(-c2ccccc2)c2ccccc21`: the EC50 in [5] turned out to be 900 nM.

Consider `N#Cc1c(-c2ccccc2)c2ccccc2n(CCCN2CCCC2)c1=O`, for which the concentration for a half-maximal effect (EC50) in data set [5] turned out to be 9300 nM.

With `CCN(C)CCCn1c(=O)c(C#N)c(-c2ccccc2)c2ccccc21`, the half-maximal effective concentration (EC50) in [5] was found to be 4300 nM.

Regarding `CN(C)CCCn1c(=O)c(C#N)cc2ccccc21`, in data set [5], the concentration giving a half-maximal response (EC50) is more than 10000 nM.

Take `CN(C)CCCn1ccc(-c2ccccc2)c(C#N)c1=O`: the EC50 in data set [5] was more than 10000 nM.

On to `CN(C)CCCn1c(=O)c(C#N)c(-c2ccccc2)c2ccccc21`, for which the 50% effective concentration (EC50) is more than 100000 nM in [10]; more than 100000 nM in [11]; 1300 nM in data set [5]; more than 100000 nM in [13]; 8200 nM in [6]. In data set [12], 19000 nM corresponded to half-maximal inhibition (IC50). For the same compound, the Emax in data set [7] came to 44%; in data set [8], 15%.

As to `CN(C)CCCn1c(=O)cc(-c2ccccc2)c2ccccc21`, the EC50 in data set [5] was 2800 nM.

For the compound `CN(C)CCn1c(=O)cc(-c2ccccc2)c2ccccc21`, the concentration giving a half-maximal response (EC50) in data set [5] is more than 10000 nM.

As to `CN(C)CCCCn1c(=O)cc(-c2ccccc2)c2ccccc21`, the concentration for a half-maximal effect (EC50) in data set [5] was more than 10000 nM.

For the compound `CC(=O)NCc1cccc(-c2cc(=O)n(CC3CCCNC3)c3ccccc23)c1` (racemic), the EC50 in [5] is 100 nM.

`O=c1cc(-c2ccccc2)c2ccccc2n1CC1CN2CCC1(F)CC2` (racemic): in data set [2], the efflux ratio was found to be 0.6. Further, the Papp in [3] turned out to be 38 ×10⁻⁶ cm/s. In data set [4], the pKa amounted to 7.6.

As for `CC(=O)NCc1cccc(-c2cc(=O)n(CC3CN4CCC3CC4)c3ccccc23)c1` (racemic), the Papp in [3] stood at 0.1 ×10⁻⁶ cm/s. In [5], the EC50 is 32 nM. In data set [14], the Ratio IC50/EC50 stood at 50. Besides, the Ratio EC50 in [15], in data set [16] and in [17] was 100 each time. Also, the Emax is 84% in [7] and 21% in data set [8].

As for `CS(=O)(=O)NCc1cccc(-c2cc(=O)n(CC3CN4CCC3CC4)c3ccccc23)c1` (racemic), the half-maximal effective concentration (EC50) in data set [5] was 14 nM; in data set [6] it was 260 nM. Also, the Ratio IC50/EC50 in [14] came to 50. Besides, the Ratio EC50 in data set [15], in [16] and in [17] was 100 in each case. Besides, the Emax in data set [7] was found to be 97%; in data set [8] it was 21%.

With `O=c1cc(-c2cccc3[nH]ccc23)c2ccccc2n1CC1CN2CCC1CC2` (racemic), the efflux ratio in data set [2] is more than 18. The Papp in data set [3] was found to be 40 ×10⁻⁶ cm/s. For the same compound, the figures for the EC50 in [5] and in data set [6] were 23 nM and 540 nM, respectively. For the same compound, the Ratio IC50/EC50 in data set [14] came to 50. The Ratio EC50 in data set [15], in [16] and in data set [17] was 100 throughout. Further, the values for the maximal response (Emax) in data set [7] and in data set [8] were 80% and 62%, respectively.

Take `Cc1ccc(-c2cc(=O)n(CC3CCCNC3)c3ccccc23)cc1` (racemic): the EC50 in data set [5] is more than 10000 nM.

For `O=c1cc(-c2cccc3[nH]ccc23)c2ccccc2n1CC1CCCNC1` (racemic), in [5], the EC50 is 110 nM.

Turning to `CS(=O)(=O)NCc1cccc(-c2cc(=O)n(CC3CCCNC3)c3ccccc23)c1` (racemic), the EC50 in data set [5] amounted to 77 nM.

For the compound `COc1cccc(-c2cc(=O)n(CC3CCCNC3)c3ccccc23)c1` (racemic), the 50% effective concentration (EC50) in [5] was 1300 nM.

Take `Cc1ccccc1-c1cc(=O)n(CC2CCCNC2)c2ccccc12` (racemic): the EC50 in data set [5] turned out to be 1500 nM.

Turning to `CN1CCCC(Cn2c(=O)c(C#N)c(-c3ccccc3)c3ccccc32)C1` (racemic), in [5], the EC50 is more than 10000 nM.

Take `N#Cc1c(-c2ccccc2)c2ccccc2n(CC2CCCNC2)c1=O` (racemic): the EC50 in [5] is 460 nM.

Consider `CC(CN(C)C)Cn1c(=O)cc(-c2ccccc2)c2ccccc21` (racemic), for which, in data set [5], the EC50 was more than 10000 nM.

As for `CC(CCn1c(=O)cc(-c2ccccc2)c2ccccc21)N(C)C` (racemic), the EC50 in data set [5] was more than 10000 nM.

Turning to `c1cnc2c(c1)C[C@@]1(CN3CCC1CC3)O2` [AZD0328], the efflux ratio in data set [2] is 0.9. Besides, the Kp at 0.5 h in [9] was determined as 1.7. In addition, in data set [3], the Papp is 51 ×10⁻⁶ cm/s. Further, the pKa in data set [4] worked out at 8.9.

Broadly, the efflux ratio is a quotient of directional permeabilities that is used to spot active efflux. Broadly, the pKa is the negative logarithm of the acid dissociation constant. High values mean a group that holds its proton tightly, low ones a group that gives up its proton readily. A word on the EC50: it is the midpoint of the concentration-response curve. In general, Emax refers to the greatest response seen or fitted, relative to the assay's reference. Broadly, the IC50 is the point on the concentration scale where inhibition reaches its midpoint. Higher therefore signals a need for much substance.

Values taken from ChEMBL document CHEMBL2331502, “Discovery of a novel series of quinolone α7 nicotinic acetylcholine receptor agonists” (Bioorg Med Chem Lett, 2013).
